According to US20050148586A1 (priority 2004, published 2005):

Molecular target: T1, glycogen phosphorylase (from rabbit muscle, Sigma P1261) (Oryctolagus cuniculus, UniProt P00489)
T1 construct: glycogen phosphorylase (from rabbit muscle, Sigma P1261); purchased Sigma P1261; host or cells: rabbit muscle (tissue-derived)
T1 sequence (P00489 2-843 limits assumed): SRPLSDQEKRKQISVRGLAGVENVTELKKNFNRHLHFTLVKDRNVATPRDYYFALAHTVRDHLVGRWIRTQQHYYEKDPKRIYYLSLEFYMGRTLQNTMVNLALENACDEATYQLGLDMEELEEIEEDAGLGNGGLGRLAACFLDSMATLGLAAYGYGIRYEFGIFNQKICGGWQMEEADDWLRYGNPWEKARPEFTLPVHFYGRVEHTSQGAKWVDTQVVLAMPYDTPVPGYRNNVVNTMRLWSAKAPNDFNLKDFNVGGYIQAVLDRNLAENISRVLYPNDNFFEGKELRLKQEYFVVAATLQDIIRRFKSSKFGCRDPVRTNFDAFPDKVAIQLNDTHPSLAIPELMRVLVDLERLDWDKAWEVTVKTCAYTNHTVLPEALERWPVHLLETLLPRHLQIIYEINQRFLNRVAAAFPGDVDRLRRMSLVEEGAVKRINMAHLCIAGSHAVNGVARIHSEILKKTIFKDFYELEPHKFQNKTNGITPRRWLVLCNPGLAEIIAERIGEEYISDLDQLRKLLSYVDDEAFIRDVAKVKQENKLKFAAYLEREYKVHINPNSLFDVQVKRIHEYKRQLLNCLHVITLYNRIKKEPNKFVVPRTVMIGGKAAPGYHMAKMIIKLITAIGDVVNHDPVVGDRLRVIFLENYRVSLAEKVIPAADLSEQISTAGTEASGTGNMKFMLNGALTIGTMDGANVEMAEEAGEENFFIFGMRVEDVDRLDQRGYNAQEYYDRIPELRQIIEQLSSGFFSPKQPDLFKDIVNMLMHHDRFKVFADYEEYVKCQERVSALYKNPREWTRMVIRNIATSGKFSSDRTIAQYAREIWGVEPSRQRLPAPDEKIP
Experiment: Enzyme Inhibition Assay (malachite green phosphate readout)
Assay type: biochemical
Conditions: for inhibition at 20 µM: @ 20 μM test compound, percent inhibition (±10%) of enzymatic activity; for IC50: +/−.05
Protocol: All samples contain 2% DMSO, and the background lacks enzyme but contains all substrates. The reaction was stopped by the addition of […] of a 1N HCl solution containing 10 mg/ml ammonium molybdate and 0.38 mg/ml malachite green. After a 15-minute incubation period to allow the colored reaction (a quantitative measurement of inorganic phosphate) to develop, the colored wells were read at 650 nm. Data was reported as percent inhibition (±10%) of enzymatic activity at a specified concentration.

Structure (SMILES) | inhibition at 20 µM | IC50
O=C(NCc1cccs1)c1ccc(Nc2nc3ccccc3n(CCN3CCCCC3)c2=O)cc1 [Compound 62] | 95% | –
Cn1c(=O)c(Nc2ccc(NC(=O)c3ccco3)cc2)nc2ccccc21 [Compound 18, Furan-2-carboxylic acid[4-(4-Methyl-3-oxo-3,4-dihydro-quinoxalin-2ylamino)-phenyl]-amide] | 80% | 2500 nM
Cn1cccc1C(=O)Nc1ccc(Nc2nc3ccccc3n(C)c2=O)cc1 [Compound 19, 1-Methyl-1H-pyrrole-2-carboxylic acid[4-(4-Methyl-3-oxo-3,4-dihydro-quinoxalin-2ylamino)-phenyl]-amide] | 77% | 5000 nM
Cn1c(=O)c(Nc2ccc(NC(=O)c3cccnc3)cc2)nc2ccccc21 [Compound 16, N-[4-(4-Methyl-3-oxo-3,4-dihydro-quinoxalin-2ylamino)-phenyl]-nicotinamide] | 97% | 800 nM
Cn1c(=O)c(Nc2ccc(NC(=O)c3cccs3)cc2)nc2ccccc21 [Compound 17, Thiophene-2-carboxylic acid[4-(4-Methyl-3-oxo-3,4-dihydro-quinoxalin-2ylamino)-phenyl]-amide] | 70% | 1500 nM
CCn1c(=O)c(Nc2ccc(C(=O)Nc3nccs3)cc2)nc2ccccc21 [Compound 30, 4-(4-Ethyl-3-oxo-3,4-dihydro-quinoxalin-2ylamino)-N-thiazol-2-yl-benzamide] | 90% | 830 nM
Cn1c(=O)c(Nc2ccc(-n3ccnc3)cc2)nc2ccccc21 [Compound 23, 3-(4-imidazol-1-yl-phenylamino)-1-methyl-1H-quinoxalin-2-one] | 82% | 2500 nM
COC(=O)c1ccc(Nc2nc3ccccc3n(CCN3CCOCC3)c2=O)cc1 [Compound 57] | 89% | 1800 nM
O=C(O)Cn1c(=O)c(Nc2ccc(C(=O)NCc3cccs3)cc2)nc2ccccc21 [Compound 75, (2-Oxo-3-{4-[(thiophen-2ylmethyl)-carbamoyl]-phenylamino}-2H-quinoxalin-1-yl)-acetic acid] | 77% | 5700 nM
Cn1ccc(NC(=O)c2ccc(Nc3nc4ccccc4n(C)c3=O)cc2)n1 [Compound 8] | 95% | 890 nM
Cn1c(=O)c(Nc2ccc(-c3ccc[nH]3)cc2)nc2ccccc21 [Compound 22, 1-Methyl-3-[4-(1H-pyrrol-2-yl)-phenylamino]-1H-quinoxalin-2-one] | 92% | 2500 nM
Cn1c(=O)c(Nc2ccc(C(=O)Nc3cnccn3)cc2)nc2ccccc21 [Compound 12, 4-(4-Methyl-3-oxo-3,4-dihydro-quinoxalin-2ylamino)-N-pyrazin-2-yl-benzamide] | 68% | 1300 nM

Continued, values first:

inhibition at 20 µM | IC50 | Structure (SMILES)
99% | 300 nM | O=C(NCc1cccs1)c1ccc(Nc2nc3ccccc3n(CCO)c2=O)cc1 [Compound 51]
99% | 700 nM | CN(C)CCn1c(=O)c(Nc2ccc(C(=O)NCc3cccs3)cc2)nc2ccccc21 [Compound 70]
100% | 460 nM | CCn1c(=O)c(Nc2ccc(C(=O)Nc3cc[nH]n3)cc2)nc2ccccc21 [Compound 29, 4-(4-Ethyl-3-oxo-3,4-dihydro-quinoxalin-2ylamino)-N-(1H-pyrazol-3-yl)-benzamide]
100% | 120 nM | CCn1c(=O)c(Nc2ccc(C(=O)Nc3ccon3)cc2)nc2ccccc21 [Compound 28, N-Isoxazol-3-yl-4-(4-Ethyl-3-oxo-3,4-dihydro-quinoxalin-2ylamino)-benzamide]
96% | 690 nM | Cn1c(=O)c(Nc2ccc(C(=O)NCc3ccccc3)cc2)nc2ccccc21 [Compound 78, N-Benzyl-4-(4-Methyl-3-oxo-3,4-dihydro-quinoxalin-2ylamino)-benzamide]
96% | 320 nM | Cn1c(=O)c(Nc2ccc(C(=O)Nc3ccon3)cc2)nc2cccnc21 [Compound 36, N-Isoxazol-3-yl-4-(4-Methyl-3-oxo-3,4-dihydro-pyrido[2,3-b]pyrazin-2-ylamino)-benzamide]
97% | 260 nM | O=C(Nc1ccon1)c1ccc(Nc2nc3ccccc3n(CCN3CCOCC3)c2=O)cc1 [Compound 55, N-Isoxazol-3-yl-4-[4-(2-Morpholin-4-yl-ethyl)-3-oxo-3,4-dihydro-quinoxalin-2ylamino]-bezamide]
92% | 120 nM | Cn1c(=O)c(Nc2ccc(C(=O)Nc3ccno3)cc2)nc2ccccc21 [Compound 7, N-Isoxazol-5-yl-4-(4-Methyl-3-oxo-3,4-dihydro-quinoxalin-2ylamino)-benzamide]
93% | 710 nM | Cn1c(=O)c(Nc2ccc(C(=O)Nc3ccsc3)cc2)nc2ccccc21 [Compound 9, 4-(4-Methyl-3-oxo-3,4-dihydro-quinoxalin-2ylamino)-N-thiophen-3-yl-benzamide]
